What was measured:
[1] = tested on: neoplastic and non-neoplastic cells; settings: Newmark et al. 1994; cited from earlier work
[2] = tested on: gamma globin gene expression; settings: cited from earlier work
in vitro = settings: human, k562 cells
Experimental: (§1) To normalize luciferase units to the number of viable cells, parallel cell viability assays were performed using 3-(4,5-dimethylthiazol-2-yl)-2,5-diphenyltetrazolium bromide (MTT) (Vistica, D. T. et al. (1991) Cancer Res. 51:2515-2520). Transfected K562 cells were plated in 96 well dishes at a density of 2×10^4 and 2×10^3 cells per 100 μl per well. 24 hours later, the cells were treated with test compounds (at a final concentration of 5 mM). At 24, 50, 74 or 122 hours after treatment, 50 μl of 3 mg/ml MTT in PBS was added to each well. The 96 well plate was then incubated at 37° C. for 4 to 5 hours. The formazan derivatives formed from tetrazolium by viable cells were solubilized by the addition of 50 μl/well 25% SDS, pH 3, overnight at 37° C. The plates were than read at a wavelength of 550 nm.

K562 cells = experiment: in vitro
Experimental: as §1

GATA-1 mRNA = GATA-1 mRNA level (Northern) with BA and/or cycloheximide in gamma3'PE cells; assay type: cell-based, human; settings: BA 5 mM, 5 hr
Experimental: To determine if BA exerts its inductive effects by acting directly on pre-existing proteins in the cells, the effect of the protein synthesis inhibitor cycloheximide (CHX) on BA-induced expression of RNA was analyzed. In these experiments, gamma3'PE cells were incubated with 150 μg/ml CHX for 2 hr prior to addition of BA (5 mM). Control cells were incubated with either CHX or BA alone or were mock incubated. Cells were harvested 5 hr later for preparation of total RNA. RNA samples were electrophoresed, transferred to nitrocellulose and hybridized to a ^32 P-labeled luciferase cDNA probe as described in Example 4. The radioactive signals on the filter were quantitated using a BioRad GS-250 Molecular Imager and mRNA levels were normalized to values obtained for mock treated samples. The results are presented graphically in FIG. 12, Panel A. BA treatment alone increased gamma globin-regulated luciferase mRNA by approximately 6 fold.
The results, normalized to mock treated samples, are depicted graphically in FIG. 12, Panel B. In contrast to luciferase mRNA which was induced by BA treatment, the level of GATA-1 RNA decreases about 3 fold in response to BA treatment.

[3] = tested on: gamma globin gene expression (gamma3'PE reporter) in K562 cells; experiment: gamma globin promoter-luciferase reporter assay in stably transfected gamma3'PE K562 cells
Experimental: The gamma globin 5' promoter and 3' enhancer fragments, alone or in combination with each other or another fragment, were inserted into restriction endonuclease sites flanking the coding sequences of the luciferase gene in pGL2 using standard recombinant DNA techniques (pGL2 was obtained commercially from Promega Biotech). Constructs were prepared which contained: 1) the gamma globin promoter alone upstream of the luciferase gene (gamma); 2) the gamma globin promoter upstream of the luciferase gene and the gamma globin 3' enhancer downstream of the luciferase gene (gamma3'PE); 3) the gamma globin promoter upstream of the luciferase gene and the SV40 enhancer downstream of the luciferase gene (gammaSV40); 4) the beta globin promoter upstream of the luciferase gene and the gamma globin 3' enhancer downstream of the luciferase gene Coeta3'PE); and 5) hypersensitive sites 2 and 3 G-IS2 and HS3) of the 5' globin enhancer upstream of the gamma globin promoter upstream of the luciferase gene and the gamma globin 3' enhancer downstream of the luciferase gene (HS2/3gamma3'PE). These constructs are illustrated schematically in FIG. 2.
The gamma globin-luciferase reporter gene constructs described in Example 1 were introduced into a human erythroleukemia cell line K562 (ATCC No. CCL 243). To create stable transfectants, K562 cells (5×10^6) in log phase were suspended in 400 μl HEPES buffered saline and then combined with 33.5 μg salmon testes DNA (Sigma), 1.5 μg neo plasmid (pPMT) and 15 μg reporter gene plasmid supercoiled that had been co-precipitated and suspended in 400 μl HEPES buffered saline. The DNA-cell mixture was electroporated at settings of 0.25 KV and 960 μFD using a Gene Pulser (BioRad Inc.) electropotation apparatus.
The cells were allowed to recover 10 minutes at room temperature, then added to 10 ml complete RPMI cell culture medium. Cell debris was removed by centrifugation at 1000 rpm for 5 minutes. The live cells were suspended in 20 ml RPMI in 2×10 cm dishes and grown in non-selective media for 48 hours. Stably transfected cells were then selected by growing the cells in media containing 300 μg/ml G418 for about one month. During this time the cells were split 1:5 every 3 to 4 days. Once the lines were stable, they were carried in 100 μg/ml G418. The cell lines were designated according to the reporter gene construct that was introduced into the cell line. For example, a cell line carrying the gamma'3PE construct was designated gamma3'PE. Transient transfections were carried out similarly except that the neo plasmid was omitted from the electroporation solution and the cells were not subjected to G418 selection.
K562 host cells carrying gamma globin-reporter gene constructs were used to lo screen compounds for their ability to induce globin gene expression, as measured by increased reporter gene activity in the host cells upon treatment with the compound. The host cells described in Example 2 were grown to log phase cells and plated at a density of 2×10^5 /ml in RPMI media without G418. After 24 hours, compounds to be assayed for their ability to induce globin gene expression were dissolved in RPMI media at a concentration of 5 mM and added to the K562 stable transfectants. Mock-treated stably transfected K562 cells served as a negative control. The cells were incubated with the test compounds at 37° C. for various time periods (e.g., 24, 50, 74 and 122 hours).
After induction with the test compounds, the cells were harvested, lysed and assayed for reporter gene activity (i.e., luciferase activity) as follows. Cells were collected, washed once with PBS and lysed in 200 μl Cell Culture Lysis 1 X Reagent (Promega Luciferase Assay System) consisting of 25 mM Tris-Phosphate pH 7.8; 2 mM DTT; 2 mM 1,2-diaminocyclohexane-N,N,N,N-tetraacetic acid; 10% glycerol; 1% Triton X-100.

CCCC(=O)O [BA, butyric acid]
induction of differentiation [1]: induce differentiation of neoplastic and non-neoplastic cells
effect on gamma globin gene expression ([2]; in vitro and in vivo): increase gamma globin gene expression in vitro and in vivo
effect on fetal to adult hemoglobin switch ([2]; in vivo): delay the fetal to adult hemoglobin switch in vivo
cytotoxicity at 72 h, 5000 µM (in vitro): ~100%
viability at 122 h, 5000 µM (in vitro): < 30%
effect on cell viability within 24 hours (FIG. 7) (K562 cells): negative effect on cell viability within 24 hours after treatment
decrease in GATA-1 RNA level (GATA-1 mRNA): about 3 fold
induction of gamma-globin reporter gene expression over time course (FIG. 3) ([3]; 5 mM, 24-122 hr, normalized to viable cells): initially a strong inducer of gamma-globin gene expression
level of induction by the conclusion of the time course (FIG. 3) ([3]; 5 mM, normalized to viable cells): dropped below the level of uninduced cells by the conclusion of the time course
fold induction at 5000 µM ([3]; Homo sapiens, K562, 72 h, read-out: fold induction of reporter gene activity (FIG. 6)): ~2
